# Columns and labels:
# IKZF2 = test: Cellular degradation assay, eGFP-IKZF2Δ fusion with mCherry reporter in Flp-In 293 cells; type: cell-based; conditions: for IKZF2 GFP/RFP Relative Abundance: 5 h incubation, n=1
# Description: (§1) IKZF1Δ, IKZF2Δ, GSPT1 and SALL4 ZnF1-2 were subcloned into mammalian pcDNA5/FRT Vector (Ampicillin and Hygromycin B resistant) modified to contain MCS-eGFP-P2A-mCherry. […] Following 2-3 passage cycle, FACS (FACSAria™ II, BD) was used to enrich for cells expressing eGFP and mCherry. Cells stably expressing the IKZF1Δ, IKZF2Δ, GSPT1 or SALL4 Znf1-2 GFP fusions with mCherry reporter were seeded at 30-50% confluency in 384-well plates with 50 μL FluoroBrite™ DMEM media (Thermo Fisher Scientific, A18967) containing 10% FBS per well a day before compound treatment. Compound titrations were dispensed using a D300e Digital Dispenser (HP), normalized to 0.5% DMSO, and incubated with cells for 5 hours.
# (§2) The resulting images were analyzed using CellProfiler™. A series of image analysis steps (‘image analysis pipeline’) was constructed. First, the red and green channels were aligned and cropped to target the middle of each well (to avoid analysis of heavily clumped cells at the edges), and a background illumination function was calculated for both red and green channels of each well individually and subtracted to correct for illumination variations across the 384-well plate from various sources of error. An additional step was then applied to the green channel to suppress the analysis of large auto fluorescent artifacts and enhance the analysis of cell specific fluorescence by way of selecting for objects under a given size, 30 A.U., and with a given shape, speckles. mCherry-positive cells were then identified in the red channel filtering for objects between 8-60 pixels in diameter and using intensity to distinguish between clumped objects. The green channel was then segmented into GFP positive and negative areas and objects were labeled as GFP positive if at least 40% of it overlapped with a GFP positive area. The fraction of GFP-positive cells/mCherry-positive cells in each well was then calculated, and the green and red images were rescaled for visualization.
# (§3) The degradation assay was performed as described above. […] Degradation was measured after 5 h of compound treatment and the concentrations that lead to half degradation at 5 h (DC50,5 h) were calculated using the nonlinear fit variable slope model (GraphPad Software).
# CRBN and Helios (IKZF2) = molecular target: T1, CRBN and Helios (IKZF2) (Homo sapiens, UniProt Q96SW2+Q9UKS7); test: TR-FRET dimerization assay (CRBN-IKZF2 ternary complex formation); type: binding; conditions: n=1
# T1 construct: His (N); Strep (N)
# Description: A focused library of imide analogs was synthesized and assessed for their ability to induce dimerization between CRBN and Helios in a time-resolved fluorescence energy transfer (TR-FRET) assay (FIG. 1A).
# Prior to TR-FRET measurements being conducted, the reactions were incubated for 15 min at rt. […] The TR-FRET signal of each data point was extracted by calculating the 520/490 nm ratios. Data from single measurements (n=1), each calculated as an average of at least three technical replicates per well per experiment are presented in Table 1.
# BODIPY-labeled CRBN in complex with Damage Specific DNA Binding Protein 1 (DDB1) harboring an internal deletion of the flexible BPB propeller (DDB1AB-CRBN) and in vitro biotinylated IKZF2 were treated with increasing concentrations of the indicated compounds in the presence of tracer amounts of Terbium-Streptavidin (Tb-SA). Compound-induced recruitment of IKZF2 to CRBN was quantified following the 520/490 TR-FRET ratio using a PHERAstar® plate reader (BMG) utilizing two synchronized PMTs to reduce background.
# IKZF1 = molecular target: T2, IKZF1 (Homo sapiens, UniProt Q13422); test: Cellular degradation assay, eGFP-IKZF1Δ fusion with mCherry reporter in Flp-In 293 cells; type: cell-based; conditions: for IKZF1 GFP/RFP Relative Abundance: 5 h incubation, n=1
# T2 construct: expressed in transfected cells; host or cells: Flp-In 293
# Description: as §1, §2, §3
# [1] = compound concentration 2.00E−05
# [2] = compound concentration 2.00E−06
# [3] = compound concentration 2.00E−07
# [4] = compound concentration 6.6667E−05
# [5] = compound concentration 6.6667E−06
# [6] = compound concentration 6.6667E−07 (667 nM)
# [7] = half degradation at 5 h (DC50,5 h), triplicate, 11 point dose response
# T2 sequence (Q13422 83-213 isoform Q13422-7 limits assumed): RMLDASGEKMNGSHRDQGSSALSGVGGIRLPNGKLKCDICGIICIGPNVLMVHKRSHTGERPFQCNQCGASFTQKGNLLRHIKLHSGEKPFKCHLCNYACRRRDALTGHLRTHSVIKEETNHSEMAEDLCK
# T2 sequence (Q96SW2 whole entry partner, the tested form may be a part): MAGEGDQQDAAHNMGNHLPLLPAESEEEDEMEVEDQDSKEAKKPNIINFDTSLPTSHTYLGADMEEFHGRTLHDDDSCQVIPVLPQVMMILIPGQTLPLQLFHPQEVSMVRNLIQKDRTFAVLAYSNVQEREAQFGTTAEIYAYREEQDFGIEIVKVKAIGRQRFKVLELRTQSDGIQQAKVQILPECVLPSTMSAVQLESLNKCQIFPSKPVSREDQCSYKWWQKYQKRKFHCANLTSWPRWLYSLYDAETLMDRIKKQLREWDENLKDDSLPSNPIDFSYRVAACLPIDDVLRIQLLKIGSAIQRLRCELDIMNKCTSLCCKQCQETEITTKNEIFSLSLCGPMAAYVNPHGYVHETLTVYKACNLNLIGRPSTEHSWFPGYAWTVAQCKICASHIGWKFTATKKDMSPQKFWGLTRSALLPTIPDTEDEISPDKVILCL
# T2 sequence (Q16531 2-1140 partner limits assumed): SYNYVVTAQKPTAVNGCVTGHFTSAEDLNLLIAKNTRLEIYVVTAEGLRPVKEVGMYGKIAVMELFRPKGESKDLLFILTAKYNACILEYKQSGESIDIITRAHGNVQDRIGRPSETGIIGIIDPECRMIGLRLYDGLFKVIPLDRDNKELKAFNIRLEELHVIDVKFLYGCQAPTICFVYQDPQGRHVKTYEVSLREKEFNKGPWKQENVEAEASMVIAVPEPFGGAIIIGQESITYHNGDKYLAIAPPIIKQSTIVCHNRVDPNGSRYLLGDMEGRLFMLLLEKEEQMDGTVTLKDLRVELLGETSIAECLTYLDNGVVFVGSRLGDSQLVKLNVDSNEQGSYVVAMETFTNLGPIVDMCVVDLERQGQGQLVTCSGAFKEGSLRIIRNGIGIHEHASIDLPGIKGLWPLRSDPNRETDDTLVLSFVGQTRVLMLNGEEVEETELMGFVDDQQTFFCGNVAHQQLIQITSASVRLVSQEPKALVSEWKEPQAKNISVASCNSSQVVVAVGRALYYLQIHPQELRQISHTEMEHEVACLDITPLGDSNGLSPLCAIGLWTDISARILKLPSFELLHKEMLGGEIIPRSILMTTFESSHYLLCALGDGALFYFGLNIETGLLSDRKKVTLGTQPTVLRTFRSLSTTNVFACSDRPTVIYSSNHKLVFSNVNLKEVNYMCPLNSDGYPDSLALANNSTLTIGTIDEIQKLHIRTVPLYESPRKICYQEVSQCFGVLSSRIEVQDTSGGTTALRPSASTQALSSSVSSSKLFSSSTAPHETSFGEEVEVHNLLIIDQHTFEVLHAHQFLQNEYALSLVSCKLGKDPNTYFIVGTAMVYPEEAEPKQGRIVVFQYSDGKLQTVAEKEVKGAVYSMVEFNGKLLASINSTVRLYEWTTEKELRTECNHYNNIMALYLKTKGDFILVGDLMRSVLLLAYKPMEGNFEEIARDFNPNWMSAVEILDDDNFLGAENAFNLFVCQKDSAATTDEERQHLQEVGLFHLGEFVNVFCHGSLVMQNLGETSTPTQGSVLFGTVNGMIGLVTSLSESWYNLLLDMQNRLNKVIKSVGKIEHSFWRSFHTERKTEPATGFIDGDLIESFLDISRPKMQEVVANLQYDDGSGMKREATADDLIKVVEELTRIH
# T1 sequence (Q96SW2 whole entry): as the sequence (Q96SW2 whole entry partner, the tested form may be a part) above
# T1 sequence (Q9UKS7 whole entry): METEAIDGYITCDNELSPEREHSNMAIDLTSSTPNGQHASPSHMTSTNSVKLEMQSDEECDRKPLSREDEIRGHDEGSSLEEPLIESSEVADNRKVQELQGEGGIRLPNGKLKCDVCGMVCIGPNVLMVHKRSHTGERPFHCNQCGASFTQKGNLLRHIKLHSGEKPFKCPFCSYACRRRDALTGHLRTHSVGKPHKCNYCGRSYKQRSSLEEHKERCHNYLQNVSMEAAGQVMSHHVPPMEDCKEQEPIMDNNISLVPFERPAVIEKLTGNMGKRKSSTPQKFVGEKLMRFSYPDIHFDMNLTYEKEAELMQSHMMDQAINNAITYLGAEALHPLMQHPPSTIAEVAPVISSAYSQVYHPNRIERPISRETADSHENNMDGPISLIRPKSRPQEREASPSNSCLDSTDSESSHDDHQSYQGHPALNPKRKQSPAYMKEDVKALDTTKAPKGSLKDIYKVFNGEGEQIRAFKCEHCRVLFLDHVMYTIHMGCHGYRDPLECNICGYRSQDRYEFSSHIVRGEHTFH
SMILES,IKZF2 GFP/RFP Relative Abundance (IKZF2; [1]),IKZF2 GFP/RFP Relative Abundance (IKZF2; [2]),IKZF2 GFP/RFP Relative Abundance (IKZF2; [3]),TR-FRET-IKZF2 (Normalized to CC-885) (CRBN and Helios (IKZF2); [4]),TR-FRET-IKZF2 (Normalized to CC-885) (CRBN and Helios (IKZF2); [5]),TR-FRET-IKZF2 (Normalized to CC-885) (CRBN and Helios (IKZF2); [6]),IKZF1 GFP/RFP Relative Abundance (IKZF1; [1]),IKZF1 GFP/RFP Relative Abundance (IKZF1; [2]),IKZF1 GFP/RFP Relative Abundance (IKZF1; [3]),DC50 (IKZF2; [7]),"potency of IKZF1 degradation, in words (IKZF1; Table 3 summary)",DC50 (IKZF1; [7])
"Cc1ccc(NC(=O)NCCc2cccc(NC3=CC(=O)N(C4CCC(=O)NC4=O)C3=O)c2)cc1C(F)(F)F (stereo not drawn) [Compound 126, 1-(3-((1-(2,6-dioxopiperidin-3-yl)-2,5-dioxo-2,5-dihydro-1H-pyrrol-3-yl)amino)phenethyl)-3-(4-methyl-3-(trifluoromethyl)phenyl)urea]",0.059,0.033,0.047,1.762,1.603,1.420,0.177,0.072,0.100,–,–,–
"Cc1ccc(N(C)C(=O)CCc2cccc(NC3=CC(=O)N(C4CCC(=O)NC4=O)C3=O)c2)cc1Cl (stereo not drawn) [Compound 127, N-(3-chloro-4-methylphenyl)-3-(3-((1-(2,6-dioxopiperidin-3-yl)-2,5-dioxo-2,5-dihydro-1H-pyrrol-3-yl)amino)phenyl)-N-methylpropanamide]",0.266,0.047,0.060,1.390,1.362,1.195,0.313,0.079,0.079,–,–,–
"Cc1ccc(CNC(=O)CCc2cccc(NC3=CC(=O)N(C4CCC(=O)NC4=O)C3=O)c2)cc1Cl (stereo not drawn) [Compound 121, N-(3-chloro-4-methylbenzyl)-3-(3-((1-(2,6-dioxopiperidin-3-yl)-2,5-dioxo-2,5-dihydro-1H-pyrrol-3-yl)amino)phenyl)propanamide]",0.071,0.087,0.051,1.521,1.376,1.357,0.125,0.093,0.120,–,–,–
"Cc1ccc(CNC(=O)c2cccc(NC3=CC(=O)N(C4CCC(=O)NC4=O)C3=O)c2)cc1Cl (stereo not drawn) [Compound 122, N-(3-chloro-4-methylbenzyl)-3-((1-(2,6-dioxopiperidin-3-yl)-2,5-dioxo-2,5-dihydro-1H-pyrrol-3-yl)amino)benzamide]",0.738,0.789,0.833,0.715,0.628,0.469,0.076,0.088,0.096,–,–,–
"Cc1ccc(NC(=O)NCc2cc(NC(=O)N(C)C)cc(NC3=CC(=O)N(C4CCC(=O)NC4=O)C3=O)c2)cc1Cl (stereo not drawn) [Compound 112, 3-(3-((3-(3-chloro-4-methylphenyl)ureido)methyl)-5-((1-(2,6-dioxopiperidin-3-yl)-2,5-dioxo-2,5-dihydro-1H-pyrrol-3-yl)amino)phenyl)-1,1-dimethylurea]",1.081,1.047,1.034,0.048,0.035,0.035,0.726,0.949,1.002,–,–,–
"Cc1ccc(NC(=O)N2Cc3ccc(NC4=CC(=O)N(C5CCC(=O)NC5=O)C4=O)cc3C2)cc1Cl (stereo not drawn) [Compound 107, N-(3-chloro-4-methylphenyl)-5-((1-(2,6-dioxopiperidin-3-yl)-2,5-dioxo-2,5-dihydro-1H-pyrrol-3-yl)amino)isoindoline-2-carboxamide]",0.225,1.034,1.048,0.086,0.066,0.066,0.245,1.043,0.997,–,–,–
"Cc1cc(CNC(=O)NC(C)c2cccc(NC3=CC(=O)N(C4CCC(=O)NC4=O)C3=O)c2)ccc1Cl (stereo not drawn) [Compound 120, 1-(4-chloro-3-methylbenzyl)-3-(1-(3-((1-(2,6-dioxopiperidin-3-yl)-2,5-dioxo-2,5-dihydro-1H-pyrrol-3-yl)amino)phenyl)ethyl)urea]",0.077,0.117,0.157,1.263,1.011,0.860,0.094,0.110,0.092,–,–,–
"Cc1ccc(NC(=O)OCCc2cccc(NC3=CC(=O)N(C4CCC(=O)NC4=O)C3=O)c2)cc1Cl (stereo not drawn) [Compound 110, 3-((1-(2,6-dioxopiperidin-3-yl)-2,5-dioxo-2,5-dihydro-1H-pyrrol-3-yl)amino)phenethyl (3-chloro-4-methylphenyl)carbamate]",0.048,0.048,0.038,1.017,1.086,0.853,0.096,0.066,0.086,–,–,–
"CC(CC(=O)Nc1cccc(C(F)(F)F)c1)c1cccc(NC2=CC(=O)N(C3CCC(=O)NC3=O)C2=O)c1 (stereo not drawn) [Compound 140, 3-(3-((1-(2,6-dioxopiperidin-3-yl)-2,5-dioxo-2,5-dihydro-1H-pyrrol-3-yl)amino)phenyl)-N-(3-(trifluoromethyl)phenyl)butanamide]",0.174,0.017,0.013,2.291,1.72,1.626,–,–,–,–,–,–
Cc1ccc(NC(=O)CC(C)c2cccc(NC3=CC(=O)N(C4CCC(=O)NC4=O)C3=O)c2)cc1Cl (stereo not drawn) [Compound 137],0.023,0.009,0.011,1.665,1.677,1.665,–,–,–,–,–,–
"Cc1ccc(NC(=O)CNc2cccc(NC3=CC(=O)N(C4CCC(=O)NC4=O)C3=O)c2)cc1Cl (stereo not drawn) [Compound 78, N-(3-chloro-4-methylphenyl)-2-((3-((1-(2,6-dioxopiperidin-3-yl)-2,5-dioxo-2,5-dihydro-1H-pyrrol-3-yl)amino)phenyl)amino)acetamide]",–,–,–,–,–,–,–,–,–,2.2 nM,most potent against IKZF1,1.9 nM
"O=C1CCC(N2C(=O)C=C(Nc3cccc(CCC(=O)Nc4ccc(C(F)(F)F)c(Cl)c4)c3)C2=O)C(=O)N1 (stereo not drawn) [Compound 129, N-(3-chloro-4-(trifluoromethyl)phenyl)-3-(3-((1-(2,6-dioxopiperidin-3-yl)-2,5-dioxo-2,5-dihydro-1H-pyrrol-3-yl)amino)phenyl)propanamide]",0.063,0.013,0.027,1.626,1.551,1.583,–,–,–,–,–,–

# Source: patent US12227488B2, “Small molecule degraders of Helios and methods of use” (DANA-FARBER CANCER INSTITUTE, INC., priority 2018, dated 2025)
